# Experimental data taken from patent US8242166B2, “C(10) ethyl ester and C(10) cyclopropyl ester substituted taxanes” (Florida State University Research Foundation, Inc., priority 2008, dated 2012).
# Where “and” joins values, the source holds several entries; their conditions need not be identical. Equal values may be shown once. Read-outs that look alike come from different tables or passages of the source.
# Assays:
# [1] = system: HOP-18; assay: MTT cytotoxicity (IC50), HOP-18; format: cell-based; conditions: Homo sapiens, 72 h, read-out: IN Vitro IC50 (nm) HOP18
# Method: (§1) Compound 17932 was tested in four of these cell lines, while the remaining compounds were tested in all of these cell lines. All cell lines were maintained in RPMI-1640 tissue culture medium (TCM, supplemented with antibiotics and 10% fetal bovine serum) and cultured at 37° C. in humidified air containing 5% CO2. To assess the antiproliferative effects of the test compounds, 172 μL of tumor cell suspension (1.45×10^4 cells/ml) were added to each well of a 96-well plate and incubated for 24 h at 37° C. in 5% CO2 in air to allow cells to adhere. Seven 2-fold drug dilutions in TCM/DMSO were performed in triplicate in separate 96-well plates and 28 μL was transferred to the wells containing tumor cells (200 μL final volume/0.1% DMSO). Plates were incubated for 72 h and cell viability was determined by adding 50 μL of warm TCM containing 5 mg/mL MTT (3-[4,5-dimethylthiazol-2-yl]-2,5-diphenyltetrazolium bromide) to each well and incubating for 1 h at 37° C. Plates were processed and the absorbances of the resulting solutions were measured by a plate reader at 570 nm. […] (GraphPad Prism version 4.00 for Windows). Studies were conducted by Taxolog, Inc., Tallahassee, Fla.
# [2] = system: DLD-1; assay: MTT cytotoxicity (IC50), DLD-1; format: cell-based; conditions: Homo sapiens
# Method: as §1
# [3] = system: SK-MEL-28; assay: MTT cytotoxicity (IC50), SK-MEL-28; format: cell-based; conditions: Homo sapiens, 72 h, read-out: IN Vitro IC50 (nm) ske-mel28
# Method: as §1
# [4] = system: human MX-1 breast carcinoma; assay: MX1 xenograft study e219R1, i.v. single dose (Example 17); conditions: for CR (complete regression) / NTR (non-treatment-related death) / PR (partial regression) / TFS (tumor-free survivor) / TR (treatment-related death): n=5
# [5] = system: OVCAR5; assay: MTT cytotoxicity (IC50), OVCAR5; format: cell-based; conditions: Homo sapiens, OVCAR-5, 72 h, read-out: IN Vitro IC50 (nm) OVCAR5
# Method: as §1
# [6] = system: HT29 human tumor xenografts; assay: HT29 xenograft study e212, oral and i.v. (Example 26); conditions: every four day schedule for four doses
# From the text: The formulation for oral studies was an ethanol and Cremophor formulation while the formulation for compound 18365 and compound 19244 dosed i.v. was 5% ethanol and 95% Liposyn II 20%.
# [7] = system: OVCAR4; assay: MTT cytotoxicity (IC50), OVCAR4; format: cell-based; conditions: Homo sapiens, OVCAR-4, 72 h, read-out: IN Vitro IC50 (nm) OVCAR4
# Method: as §1
# [8] = system: MALME-3; assay: MTT cytotoxicity (IC50), MALME-3; format: cell-based; conditions: Homo sapiens, 72 h, read-out: IN Vitro IC50 (nm) Malme3
# Method: as §1
# [9] = system: 786-0; assay: MTT cytotoxicity (IC50), 786-0; format: cell-based; conditions: Homo sapiens
# Method: as §1
# [10] = system: A549; assay: MTT cytotoxicity (IC50), A549; format: cell-based; conditions: Homo sapiens, 72 h, read-out: IN Vitro IC50 (nm) A549
# Method: as §1
# [11] = system: human BxPC-3 human pancreatic xenograft; format: in vivo; conditions: for optimal T/C % value: at D53; for T/C % values: from D33
# Method: Method: Twenty four (24) hours after a whole body irradiation with a γ-source (7.0 Gy, Co^60, INRA, Dijon, France) 20×10^6 BxPC-3 cells in 200 μl of RPMI 1640 culture medium were subcutaneously injected in the right flank of 8 female Nude rats to generate tumor material. When the tumor size reaches approximately 1,000 mm^3, the tumors were surgically excised for implantation into recipient Nude female rats. Twenty four (24) hours after a whole body irradiation (7.0 Gy, Co^60, INRA, Dijon, France), fresh BxPC-3 tumor fragments were sc implanted in the right flank of 52 Nude female rats (1 fragment/rat) at D0 using surgical pliers and skin was stitched. The antitumor activity study was started at D21 when the mean tumor volume has reached 321.6±131.2 mm^3. Before the start of treatments, 42 tumor bearing rats out of 52 grafted were randomized into 7 groups of 6 animals.
# […]. At 7 mg/kg/inj, only two treatments were performed at D21 and D42 due to severe body weight loss.
smiles,measurement,setting,value
CC(=O)O[C@@]12CO[C@@H]1C[C@H](O)[C@@]1(C)C(=O)[C@H](OC(=O)C3CC3)C3=C(C)[C@@H](OC(=O)[C@H](O)[C@@H](NC(=O)OC4CCC4)c4cccs4)C[C@@](O)([C@@H](OC(=O)c4ccccc4)C12)C3(C)C (stereo partly drawn) [Compound 18365],IC50,[1],0.7 nM
same,IC50,"[2]; MTT, 72 h, read-out: IN Vitro IC50 (nm) DLD1",1.1 nM
same,IC50,"[2]; Resistance MDR1+, read-out: DLD1 Colon (Table 4, quantity not named; IC50 values as Table 2)",1.1 nM
same,IC50,[3],0.9 nM
same,% TGD,[4]; 7.5 mg/kg iv qd × 1,12.92%
same,BW Nadir,[4]; 7.5 mg/kg iv qd × 1,−3.8% (4)
same,Median TTE,[4]; 7.5 mg/kg iv qd × 1,36.29 days
same,T-C,[4]; 7.5 mg/kg iv qd × 1,4.15 days
same,activity (statistical significance),[4]; 7.5 mg/kg iv qd × 1,non-significant activity
same,CR (complete regression),[4]; 7.5 mg/kg iv qd × 1,0
same,NTR (non-treatment-related death),[4]; 7.5 mg/kg iv qd × 1,0
same,PR (partial regression),[4]; 7.5 mg/kg iv qd × 1,0
same,TFS (tumor-free survivor),[4]; 7.5 mg/kg iv qd × 1,0
same,TR (treatment-related death),[4]; 7.5 mg/kg iv qd × 1,0
same,% TGD,[4]; 15 mg/kg iv qd × 1,76.26%
same,BW Nadir,[4]; 15 mg/kg iv qd × 1,−6.8% (5)
same,"MTV (n), Day 60",[4]; 15 mg/kg iv qd × 1,1098.50 (1) mm^3
same,Median TTE,[4]; 15 mg/kg iv qd × 1,56.65 days
same,T-C,[4]; 15 mg/kg iv qd × 1,24.51 days
same,maximum group mean BW loss,[4]; 15 mg/kg iv qd × 1,6.8%
same,CR (complete regression),[4]; 15 mg/kg iv qd × 1,2
same,NTR (non-treatment-related death),[4]; 15 mg/kg iv qd × 1,0
same,PR (partial regression),[4]; 15 mg/kg iv qd × 1,1
same,TR (treatment-related death),[4]; 15 mg/kg iv qd × 1,0
same,% TGD,[4]; 30 mg/kg iv qd × 1,89.79%
same,BW Nadir,[4]; 30 mg/kg iv qd × 1,−16.0% (5)
same,"MTV (n), Day 60",[4]; 30 mg/kg iv qd × 1,0.00 (5) mm^3
same,Median TTE,[4]; 30 mg/kg iv qd × 1,61 days
same,T-C,[4]; 30 mg/kg iv qd × 1,28.86 days
same,maximum group mean BW loss,[4]; 30 mg/kg iv qd × 1,16%
same,CR (complete regression),[4]; 30 mg/kg iv qd × 1,5
same,NTR (non-treatment-related death),[4]; 30 mg/kg iv qd × 1,0
same,PR (partial regression),[4]; 30 mg/kg iv qd × 1,0
same,TFS (tumor-free survivor),[4]; 30 mg/kg iv qd × 1,5
same,TR (treatment-related death),[4]; 30 mg/kg iv qd × 1,0
same,minimal effective dose,"[4]; iv qd × 1, lowest dose with statistically significant results and at least one D61 survivor or regression",15 mg/kg
same,IC50,[5],0.3 nM
same,activity in the HT29 xenograft tumor model,[6],oral and IV activity
same,IC50,[7],1.1 nM
same,IC50,[8],4.1 nM
same,IC50,"[9]; MTT, 72 h, read-out: IN Vitro IC50 (nm) 786-0",1.1 nM
same,IC50,"[9]; Resistance MDR1+, read-out: 786-0 Renal (Table 4, quantity not named; IC50 values as Table 2)",1.1 nM
same,IC50,[10],0.5 nM
same,wt loss,[11]; 5 mg/kg,16.9%
same,tolerability of repeated IV treatments,[11]; 5 mg/kg/inj,not well tolerated
same,mean doubling time (DT) of tumors,"[11]; 5 mg/kg/inj IV, repeated",24.7 ± 10.4 days
same,"time to reach volume (T to V) of 1,000 mm^3","[11]; 5 mg/kg/inj IV, repeated",64.3 ± 16.3 days
same,body weight loss,"[11]; 5 mg/kg/inj IV, at D33",−16.9±6.1%
same,optimal T/C % value,[11]; 5 mg/kg/inj IV,11.0%
same,animals with complete tumor regression,"[11]; 5 mg/kg/inj IV, at D81 (final sacrifice), 6 rats per group",two
same,T/C % values,[11]; 5 mg/kg/inj IV,lower than 42%
same,tolerability of repeated IV treatments,[11]; 7 mg/kg/inj,not tolerated
same,rats out of six alive at the end of the study,[11]; 7 mg/kg/inj IV,one
same,MBWC D21-D26,"[11]; 7 mg/kg/inj IV, after the first treatment",−16.5±7.2%
same,optimal T/C % value,[11]; 7 mg/kg/inj IV,13.2% and 8.9%
same,T/C % values,[11]; 7 mg/kg/inj IV,lower than 42%
same,antitumor activity,[11]; repeated IV injections at 5 and 7 mg/kg/inj,marked antitumor activity
